For 23 molecules, IC50 results are on record in patent publication US10479795B2 (Incyte Corporation, priority 2016, dated 2019).

Where a name gives a salt, the structure may show the parent alone. A value given as a limit tells only on which side of the number the result lay.

Assay [1] deals with PI3Kγ (p110γ) Recombinant Human Protein (Homo sapiens (Human), UniProt P48736). As to the kind of experiment: PI3K-γ Scintillation Proximity Assay. Format: biochemical. Conditions: read-out: PI3Kγ IC50. The method, boiled down: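 Recombinant human p110γ assayed at room temperature in 20 mM MOPS pH 6.7, 10 mM MgCl2, 5 mM DTT, 0.03% CHAPS, 2% DMSO, with 20 μM PIP2 and 2 μM ATP plus [γ-33P]ATP. Product captured on WGA SPA beads overnight and counted; IC50 fitted from % of solvent-control activity versus log inhibitor concentration.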
PI3Kγ (p110γ) Recombinant Human Protein, sequence (P48736 whole entry): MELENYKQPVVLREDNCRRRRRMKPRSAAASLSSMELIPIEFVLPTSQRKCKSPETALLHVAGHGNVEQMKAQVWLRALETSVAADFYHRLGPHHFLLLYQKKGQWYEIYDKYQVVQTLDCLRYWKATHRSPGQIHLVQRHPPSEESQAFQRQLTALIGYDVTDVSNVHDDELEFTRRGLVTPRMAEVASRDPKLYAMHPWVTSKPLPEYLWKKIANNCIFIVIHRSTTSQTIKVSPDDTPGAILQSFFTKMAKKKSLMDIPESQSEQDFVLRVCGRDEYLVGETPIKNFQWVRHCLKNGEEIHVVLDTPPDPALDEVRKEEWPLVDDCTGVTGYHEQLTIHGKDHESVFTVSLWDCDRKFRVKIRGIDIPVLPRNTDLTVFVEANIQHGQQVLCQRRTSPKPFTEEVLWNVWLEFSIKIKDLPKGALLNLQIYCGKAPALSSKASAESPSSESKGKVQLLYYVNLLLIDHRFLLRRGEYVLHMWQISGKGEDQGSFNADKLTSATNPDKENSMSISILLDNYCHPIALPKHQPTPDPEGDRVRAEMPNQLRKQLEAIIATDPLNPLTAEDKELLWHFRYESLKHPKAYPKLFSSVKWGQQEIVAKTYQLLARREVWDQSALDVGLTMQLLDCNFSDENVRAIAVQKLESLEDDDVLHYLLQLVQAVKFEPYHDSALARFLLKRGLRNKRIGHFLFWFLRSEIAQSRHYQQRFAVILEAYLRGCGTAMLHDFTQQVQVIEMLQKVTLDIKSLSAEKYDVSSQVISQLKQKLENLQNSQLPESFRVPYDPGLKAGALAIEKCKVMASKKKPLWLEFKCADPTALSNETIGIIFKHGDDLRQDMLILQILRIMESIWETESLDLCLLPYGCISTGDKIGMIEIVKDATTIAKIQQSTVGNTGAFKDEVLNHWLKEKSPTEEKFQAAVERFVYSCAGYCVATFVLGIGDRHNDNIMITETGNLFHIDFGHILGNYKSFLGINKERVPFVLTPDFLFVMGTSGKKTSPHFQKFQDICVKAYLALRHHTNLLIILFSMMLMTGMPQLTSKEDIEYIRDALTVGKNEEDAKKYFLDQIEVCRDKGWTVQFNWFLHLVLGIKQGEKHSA
(In a scintillation proximity assay essentially only radioactivity close to the scintillant gives light.)

Assay [2] deals with PI3Kδ (p110δ/p85α) Recombinant Human Protein (Homo sapiens (Human), UniProt O00329). The assay is described as follows: PI3Kδ Scintillation Proximity Assay. Format: biochemical. An excerpt: Example C. PI3Kδ Scintillation Proximity Assay
PI3Kδ (p110δ/p85α) Recombinant Human Protein, sequence (O00329 whole entry): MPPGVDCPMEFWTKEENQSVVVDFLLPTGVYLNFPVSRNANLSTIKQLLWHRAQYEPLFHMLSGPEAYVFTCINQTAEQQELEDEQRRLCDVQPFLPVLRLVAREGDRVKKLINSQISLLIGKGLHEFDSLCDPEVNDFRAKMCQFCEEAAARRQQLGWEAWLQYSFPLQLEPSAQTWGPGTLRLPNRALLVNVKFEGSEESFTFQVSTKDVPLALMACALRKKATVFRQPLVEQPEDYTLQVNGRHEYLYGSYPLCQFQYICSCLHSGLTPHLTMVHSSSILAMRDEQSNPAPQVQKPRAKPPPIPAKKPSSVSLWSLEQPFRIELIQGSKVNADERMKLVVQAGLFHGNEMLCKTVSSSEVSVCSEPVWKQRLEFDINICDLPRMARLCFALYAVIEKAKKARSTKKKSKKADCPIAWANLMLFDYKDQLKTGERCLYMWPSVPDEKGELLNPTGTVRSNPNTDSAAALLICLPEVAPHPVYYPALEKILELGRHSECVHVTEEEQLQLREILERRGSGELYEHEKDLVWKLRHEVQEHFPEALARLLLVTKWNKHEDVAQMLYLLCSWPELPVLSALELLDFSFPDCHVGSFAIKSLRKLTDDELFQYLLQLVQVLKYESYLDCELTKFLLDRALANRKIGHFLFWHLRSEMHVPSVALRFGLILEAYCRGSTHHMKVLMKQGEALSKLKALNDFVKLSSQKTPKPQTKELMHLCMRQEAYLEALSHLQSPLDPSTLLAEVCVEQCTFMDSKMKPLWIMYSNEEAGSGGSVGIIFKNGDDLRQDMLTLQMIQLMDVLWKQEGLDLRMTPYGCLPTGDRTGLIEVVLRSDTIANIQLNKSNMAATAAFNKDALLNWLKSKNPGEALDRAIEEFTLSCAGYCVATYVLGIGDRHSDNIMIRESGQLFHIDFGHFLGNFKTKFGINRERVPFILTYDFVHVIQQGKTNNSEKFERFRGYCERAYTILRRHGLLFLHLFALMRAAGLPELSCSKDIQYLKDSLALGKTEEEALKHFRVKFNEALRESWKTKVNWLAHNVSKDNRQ
PI3Kδ (p110δ/p85α) Recombinant Human Protein, sequence (P27986 whole entry partner): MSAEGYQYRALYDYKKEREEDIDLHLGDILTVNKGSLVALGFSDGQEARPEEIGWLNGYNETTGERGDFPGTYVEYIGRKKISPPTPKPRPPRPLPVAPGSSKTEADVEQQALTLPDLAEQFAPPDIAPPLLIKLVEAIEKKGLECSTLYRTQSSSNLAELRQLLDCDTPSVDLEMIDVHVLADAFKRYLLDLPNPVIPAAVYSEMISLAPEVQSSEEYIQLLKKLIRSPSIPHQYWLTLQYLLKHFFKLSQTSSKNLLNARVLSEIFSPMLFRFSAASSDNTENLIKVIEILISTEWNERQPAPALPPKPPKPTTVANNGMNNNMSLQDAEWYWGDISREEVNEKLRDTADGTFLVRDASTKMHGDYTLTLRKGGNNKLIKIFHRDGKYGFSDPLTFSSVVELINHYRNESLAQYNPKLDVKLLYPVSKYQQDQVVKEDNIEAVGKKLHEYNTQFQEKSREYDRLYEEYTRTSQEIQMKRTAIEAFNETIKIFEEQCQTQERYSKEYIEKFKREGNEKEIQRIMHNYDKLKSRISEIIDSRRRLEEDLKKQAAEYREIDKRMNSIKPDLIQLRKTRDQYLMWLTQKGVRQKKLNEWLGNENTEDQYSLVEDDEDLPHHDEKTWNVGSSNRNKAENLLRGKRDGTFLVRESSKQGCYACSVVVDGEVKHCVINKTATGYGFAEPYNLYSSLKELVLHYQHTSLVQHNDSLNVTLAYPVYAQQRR
[γ-^33P]ATP (10 mCi/mL) and Wheat Germ Agglutinin (WGA) YSi SPA Scintillation Beads was purchased from Perkin-Elmer (Waltham, Mass.). Lipid kinase substrate, D-myo-Phosphatidylinositol 4,5-bisphosphate (PtdIns(4,5)P2)D (+)-sn-1,2-di-O-octanoylglyceryl, 3-O-phospho linked (PIP2), CAS 204858-53-7, was purchased from Echelon Biosciences (Salt Lake City, Utah). PI3Kδ (p110δ/p85α) Recombinant Human Protein was purchased from Eurofins (St Charles, Mo.). ATP, MgCl2, DTT, EDTA, MOPS and CHAPS were purchased from Sigma-Aldrich (St. Louis, Mo.).
The kinase reaction was conducted in polystyrene 384-well Greiner Bio-one white plate from Thermo Fisher Scientific in a final volume of 25 μL. Inhibitors were first diluted serially in DMSO and added to the plate wells before the addition of other reaction components. The final concentration of DMSO in the assay was 2%. The PI3Kδ assay was carried out at room temperature in 20 mM MOPS, pH 6.7, 10 mM MgCl2, 5 mM DTT and CHAPS 0.03%. Reactions were initiated by the addition of ATP, the final reaction mixture consisted of 20 μM PIP2, 2 μM ATP, 0.5 μCi [γ-^33P] ATP, 3.4 nM PI3Kδ. Reactions were incubated for 120 min and terminated by the addition of 40 μL SPA beads suspended in quench buffer: 163 mM potassium phosphate pH 7.8, 20% glycerol, 25 mM EDTA. The final concentration of SPA beads is 1.0 mg/mL. After the plate sealing, plates were shaken overnight at room temperature and centrifuged at 1500 rpm for 10 min, the radioactivity of the product was determined by scintillation counting on Topcount (Perkin-Elmer). IC50 determination was performed by fitting the curve of percent of the solvent control activity versus the log of the inhibitor concentration using the GraphPad Prism 6.0 software.

The term IC50 denotes the concentration that gives 50% inhibition.

On to `Cc1ccc(S(=O)(=O)N2CCN3C(=O)OC[C@H]3C2)cc1-c1cnc2c(N)ncnn12` [Example 174, (R)-7-((3-(4-aminoimidazo[2,1-f][1,2,4]triazin-7-yl)-4-methylphenyl)sulfonyl)hexahydro-3H-oxazolo[3,4-a]pyrazin-3-one], for which the concentration for half-maximal inhibition (IC50) in assay [1] was 100 to 500 nM; in assay [2], more than 2000 nM.
On the same counts, the results for `COC[C@H]1CCCN1C(=O)C1CCCN(S(=O)(=O)c2ccc(C)c(-c3cnc4c(N)nc(C(F)(F)F)cn34)c2)C1` (stereo partly drawn) [Example 511, (1-((3-(8-Amino-6-(trifluoromethyl)imidazo[1,2-a]pyrazin-3-yl)-4-methylphenyl)sulfonyl)piperidin-3-yl)((R)-2-(methoxymethyl)pyrrolidin-1-yl)methanone] are 500 to 2000 nM and more than 2000 nM.
With `Cc1ccc(S(=O)(=O)N2CCN(C)C(=O)C2)cc1-c1cnc2c(N)nc(C(F)(F)F)cn12` [Example 298, 4-((3-(8-amino-6-(trifluoromethyl)imidazo[1,2-a]pyrazin-3-yl)-4-methylphenyl)sulfonyl)-1-methylpiperazin-2-one], the IC50 in assay [1] was less than 100 nM; in assay [2], 500 to 2000 nM.
On the same counts, the results for `Cc1ccc(S(=O)(=O)N2CCCC(CNC(=O)OC(C)(C)C)C2)cc1-c1cnc2c(N)nc(C(F)(F)F)cn12` (stereo not shown) [Example 512, tert-Butyl ((1-((3-(8-amino-6-(trifluoromethyl)imidazo[1,2-a]pyrazin-3-yl)-4-methylphenyl)sulfonyl)piperidin-3-yl)methyl)carbamate] are less than 100 nM and more than 2000 nM.
Taken in the same sequence, the figures for `Cc1ccc(S(=O)(=O)N2CC3C(O)C2CN3C(C)C)cc1-c1cnc2c(N)nc(C(F)(F)F)nn12` (stereo not shown) [Example 350, 2-((3-(4-amino-2-(trifluoromethyl)imidazo[2,1-f][1,2,4]triazin-7-yl)-4-methylphenyl)sulfonyl)-5-isopropyl-2,5-diazabicyclo[2.2.1]heptan-7-ol] were 100 to 500 nM and 500 to 2000 nM.
As to `COCC1(N(C)S(=O)(=O)c2ccc(C)c(-c3cnc4c(N)ncnn34)c2)CC1` [Example 177, 3-(4-aminoimidazo[2,1-f][1,2,4]triazin-7-yl)-N-(1-(methoxymethyl)cyclopropyl)-N,4-dimethylbenzenesulfonamide], the IC50 in assay [1] is less than 100 nM; in assay [2], 500 to 2000 nM.
Taken in the same sequence, the figures for `Cc1ccc(S(=O)(=O)N2C3CCC2CC(O)C3)cc1-c1cnc2c(N)ncnn12` (stereo not shown) [Example 120, 8-{[3-(4-aminoimidazo[2,1-f][1,2,4]triazin-7-yl)-4-methylphenyl]sulfonyl}-8-azabicyclo[3.2.1]octan-3-ol] were less than 100 nM and 100 to 500 nM.
Taken in the same sequence, the figures for `Nc1ncnn2c(-c3cccc(S(=O)(=O)NC45CCC(CO)(C4)C5)c3)cnc12` [Example 368, 3-(4-Aminoimidazo[1,2-f][1,2,4]triazin-7-yl)-N-(4-(hydroxymethyl)bicyclo[2.1.1]hexan-1-yl)benzenesulfonamide trifluoroacetate salt] were less than 100 nM and 100 to 500 nM.
Taken in the same sequence, the figures for `Cc1ccc(S(=O)(=O)N(C)CCC#N)cc1-c1cnc2c(N)ncnn12` [Example 154, 3-(4-aminoimidazo[2,1-f][1,2,4]triazin-7-yl)-N-(2-cyanoethyl)-N,4-dimethylbenzenesulfonamide] were less than 100 nM and more than 2000 nM.
In the case of `Cc1ccc(S(=O)(=O)N2C[C@H](O)[C@@H](N3CCN(C)CC3)C2)cc1-c1cnc2c(N)ncnn12` [Example 167, (3S,4S)-1-((3-(4-aminoimidazo[2,1-f][1,2,4]triazin-7-yl)-4-methylphenyl)sulfonyl)-4-(4-methylpiperazin-1-yl)pyrrolidin-3-ol], the IC50 was 100 to 500 nM in assay [1] and more than 2000 nM in assay [2].
On the same counts, the results for `Cc1ccc(S(=O)(=O)N2CC3NCC2C3O)cc1-c1cnc2c(N)nc(C(F)(F)F)cn12` (stereo not shown) [Example 303, 2-((3-(8-amino-6-(trifluoromethyl)imidazo[1,2-a]pyrazin-3-yl)-4-methylphenyl)sulfonyl)-2,5-diazabicyclo[2.2.1]heptan-7-ol 2HCl] are less than 100 nM and 500 to 2000 nM.
On the same counts, the results for `CCN(CC1CCCO1)S(=O)(=O)c1ccc(C)c(-c2cnc3c(N)ncnn23)c1` (stereo not shown) [Example 179, 3-(4-aminoimidazo[2,1-f][1,2,4]triazin-7-yl)-N-ethyl-4-methyl-N-((tetrahydrofuran-2-yl)methyl)benzenesulfonamide] are less than 100 nM and 500 to 2000 nM.
Taken in the same sequence, the figures for `Cc1ccc(S(=O)(=O)N2CC(C3COC3)C2)cc1-c1cnc2c(N)ncnn12` [Example 153, 7-(2-methyl-5-((3-(oxetan-3-yl)azetidin-1-yl)sulfonyl)phenyl)imidazo[2,1-f][1,2,4]triazin-4-amine] were less than 100 nM and 500 to 2000 nM.
Turning to `Nc1nccn2c(-c3ccc(F)c(S(=O)(=O)N[C@H]4CC[C@H](O)CC4)c3)cnc12` [Example 45, 5-(8-Aminoimidazo[1,2-a]pyrazin-3-yl)-2-fluoro-N-(trans-4-hydroxycyclohexyl)benzenesulfonamide], the IC50 in assay [1] is less than 100 nM; in assay [2] it was 500 to 2000 nM.
On the same counts, the results for `Cc1cc(C)c(S(=O)(=O)NCC(C)(C)O)cc1-c1cnc2c(N)nccn12` [Example 361, 5-(8-aminoimidazo[1,2-a]pyrazin-3-yl)-N-(2-hydroxy-2-methylpropyl)-2,4-dimethylbenzenesulfonamide] are 100 to 500 nM and 100 to 500 nM.
Turning to `Cc1ccc(S(=O)(=O)N(C)CC2(CO)CC2)cc1-c1cnc2c(N)ncnn12` [Example 160, 3-(4-aminoimidazo[2,1-f][1,2,4]triazin-7-yl)-N-((1-(hydroxymethyl)cyclopropyl)methyl)-N,4-dimethylbenzenesulfonamide], the IC50 in assay [1] is 100 to 500 nM; in assay [2], 500 to 2000 nM.
For the molecule `CCCN(CC1CC1)S(=O)(=O)c1ccc(C)c(-c2cnc3c(N)ncnn23)c1` [Example 164, 3-(4-aminoimidazo[2,1-f][1,2,4]triazin-7-yl)-N-(cyclopropylmethyl)-4-methyl-N-propylbenzenesulfonamide], the IC50 in assay [1] was less than 100 nM; in assay [2], 500 to 2000 nM.
Taken in the same sequence, the figures for `Cc1ccc(S(C)(=O)=O)cc1-c1cnc2c(N)nc(C(=O)Nc3ccc(N4CCN(C)CC4)cn3)cn12` [Example 455, 8-amino-3-(2-methyl-5-(methylsulfonyl)phenyl)-N-(5-(4-methylpiperazin-1-yl)pyridin-2-yl)imidazo[1,2-a]pyrazine-6-carboxamide trifluoroacetate salt] were 500 to 2000 nM and 500 to 2000 nM.
Turning to `CCN1CC2C(O)C1CN2S(=O)(=O)c1ccc(C)c(-c2cnc3c(N)nc(C(F)(F)F)nn23)c1` (stereo not shown) [Example 349, 2-((3-(4-amino-2-(trifluoromethyl)imidazo[2,1-f][1,2,4]triazin-7-yl)-4-methylphenyl)sulfonyl)-5-ethyl-2,5-diazabicyclo[2.2.1]heptan-7-ol], the values for the IC50 in assay [1] and in assay [2] were less than 100 nM and 500 to 2000 nM, respectively.
Taken in the same sequence, the figures for `Cc1ccc(S(C)(=O)=O)cc1-c1cnc2c(N)nc(C(=O)NC3CCCN(CCO)C3)cn12` (racemic) [Example 460, 8-Amino-N-(1-(2-hydroxyethyl)piperidin-3-yl)-3-(2-methyl-5-(methylsulfonyl)phenyl)imidazo[1,2-a]pyrazine-6-carboxamide trifluoroacetate salt (racemic)] were 500 to 2000 nM and more than 2000 nM.
Taken in the same sequence, the figures for `Cc1ccc(S(=O)(=O)N(C)CC2(CO)CCC2)cc1-c1cnc2c(N)ncnn12` [Example 178, 3-(4-aminoimidazo[2,1-f][1,2,4]triazin-7-yl)-N-((1-(hydroxymethyl)cyclobutyl)methyl)-N,4-dimethylbenzenesulfonamide] were less than 100 nM and 500 to 2000 nM.
On the same counts, the results for `Cc1ccc(S(=O)(=O)N[C@H]2C[C@H](C#N)C2)cc1-c1cnc2c(N)ncnn12` [Example 370, 3-(4-Aminoimidazo[2,1-f][1,2,4]triazin-7-yl)-N-((1r,3r)-3-cyanocyclobutyl)-4-(methyl-d3)benzenesulfonamide trifluoroacetate salt] are less than 100 nM and 100 to 500 nM.
Take `Cc1ccc(S(=O)(=O)N2CCCC(NC(=O)OC(C)(C)C)C2)cc1-c1cnc2c(N)nc(C(F)(F)F)cn12` (stereo not shown) [Example 515, tert-Butyl (1-((3-(8-amino-6-(trifluoromethyl)imidazo[1,2-a]pyrazin-3-yl)-4-methylphenyl)sulfonyl)piperidin-3-yl)carbamate]: the concentration for half-maximal inhibition (IC50) in assay [1] is 100 to 500 nM; in assay [2], more than 2000 nM.
